In a melting point compilation (Tetko et al.; mined from patent text by program, amines drawn as free bases though some values may be those of a salt):

| SMILES | melting point [°C] |
| --- | --- |
| COCOc1cccc(F)c1C#N | 53 to 55 |
| O=Cc1cc(-c2ccccc2)no1 | 67 to 69 |
| CCCCNc1cc(C(=O)O)cc(S(N)(=O)=O)c1Nc1ccc(N)cc1 | 210 |
| NC(=O)c1c(C(F)(F)F)nn(-c2c(Cl)cc(C(F)(F)F)cc2Cl)c1N | 169 to 171 |
| COc1cc(N)c(C(N)=O)c(OC)c1 | 117 to 119 |
| COc1c(N2CC[C@@H](C(C)(C)NC(=O)OC(C)(C)C)C2)c(F)cc2c(=O)c(C(=O)O)cn(C3CC3)c12 | 70 to 72 |
| COC(=O)c1cc2cc(C(=O)c3cccc(C(C)C(=O)OC)c3)sc2s1 (centres undefined) | 122 |
| COc1ccc2c(c1)CNc1cc(Cl)ccc1O2 | 111 to 113 |
| Cc1ccc(Cc2c[nH]c(=S)[nH]c2=O)cn1 | 240 to 241 |
| O=C(O)CCCn1nnnc1S | 90 to 95 |
| CCCCCCCCc1cc(C=O)co1 | 25 |
| CCOC12CC(C)(C)C(O1)C(OC(=O)c1ccc(N)cc1)C=C2C (centres undefined) | 130 to 132 |
| Oc1cccc2c1C(n1ccnc1)=CCC2 | 186 |
| COc1cc(Cl)c(-n2c(=O)cc(C(F)(F)F)n(C)c2=O)c2sc(Cl)nc12 | 185 to 187 |
| O=C(Nc1ccc(-n2nc(C(F)(F)F)cc2C2CC2)cc1)c1c(Cl)cncc1Cl | 182 to 184 |
| CC1(C)NC(C(=O)O)C(C)(C)S1 (centres undefined) | 206 to 208 |
| COC1C(O)C(CO)OC1n1cnc2c(=S)n(C)cnc21 (centres undefined) | 182 to 187 |
| CCCCN1CCC(O)(c2cccc(C(F)(F)F)c2F)CC1 | 138 |
| O=C(O)C1Cc2ccccc2CN1C(=O)CCS (centres undefined) | 55 to 58 |
| CN(C)CCc1[nH]c2ccccc2c1CSC1=NCCS1 | 140 to 143 |
| COc1ccc(-c2nc(C)c(Br)[nH]2)cc1 | 179 to 184 |
| CC(=O)Oc1cccc2c1NC(O)C1CCCN1C2=O (centres undefined) | 143 to 145 |
| O=S(=O)(c1ccc(Cl)cc1)C1(c2cnccc2Cl)CCCCC1 | 145 to 147 |

| SMILES | melting point [°C] |
| --- | --- |
| CCCCCCCCCCCCc1ccc(S(=O)(=O)Nc2nnc(CC(=O)O)s2)cc1 | 194 to 195 |
| CCCN1CCC(C(=O)Nc2ccc(CN(C)C3CCOCC3)cc2)=Cc2cc(Br)ccc21 | 134 to 136 |
| CCC1(C)Cc2ccc(C)cc2C1=O (centres undefined) | 25.5 to 27 |
| Cc1c(O)ncnc1C(F)F | 166 to 167 |
| O=C1CCc2c1cccc2C(F)(F)F | 32 to 36 |
| CC(C)CNC(=O)CN=Cc1ccccc1F | 154 |
| COC(=O)c1ccc(N2CCCC2=O)c(N)c1 | 136 to 138 |
| O=C(NCCSCc1cccc(Br)c1)c1c(Br)cccc1Br | 70 to 72 |
| CCOC(=O)CNS(=O)(=O)C(F)(F)F | 73 to 75 |
| N#Cc1ccc2nc(-c3ccc(Br)o3)cn2c1 | 212 to 214 |
| CCOC(=O)CNc1cc(C(F)(F)F)ccc1C#N | 98 to 101 |
| Cc1nn(-c2c(Cl)cc(C(F)(F)F)cc2Cl)c(N)c1C#N | 194 to 196 |
| O[C@@H]1C=C[C@H](n2cnc3c(NCC(c4ccccc4)c4ccccc4)ncnc32)C1 (racemic) | 165 to 169 |
| O=C1Cc2cc(F)ccc2N1CCCl | 127 |
| NCCCC(=O)NCCS(=O)(=O)O | 247 |
| Cc1ccc(Nc2nc(-c3cccc(C#N)c3)cs2)nc1 | 268 to 272 |
| CN(C)C(=O)c1noc(-c2cnccc2C(F)(F)F)n1 | 52 to 54 |
| O=[N+]([O-])c1ccc2[nH]c(C(F)(F)F)c([N+](=O)[O-])c2c1 | 225 to 228 |
| N#Cc1cc(N2CCN(CC[C@H]3CC[C@H](NS(=O)(=O)c4cccnc4)CC3)CC2)cc(C(F)(F)F)c1 | 194 to 195 |
| O=[N+]([O-])CC(SC(=S)N1CCCC1)c1ccccc1 (centres undefined) | 116 to 120 |
| CCCc1nn(C)c2c(=O)[nH]c(Cc3ccc(-n4cnnc4)cc3)nc12 | 297 to 300 |
| NCC(COC(C(F)(F)F)(C(F)(F)F)C(F)(F)F)(COC(C(F)(F)F)(C(F)(F)F)C(F)(F)F)C(=O)O | 182 to 184 |
| Cc1oc(C=Cc2ccc(Cl)cc2)nc1CC#N | 124 to 125 |

| SMILES | melting point [°C] |
| --- | --- |
| COc1ccc(/C=C(\C#N)c2cccnc2)cc1OC1CCCC1 | 86.5 to 87.5 |
| Clc1cccc2c1Oc1ccccc1N=C2N1CCN2CCC[C@H]2C1 | 150 to 151 |
| CC(=O)c1ccc(N2CCN(c3c(C)c(C)c4c(c3C)CC(C)(C)O4)CC2)cc1 | 192 to 196 |
| COc1ccc(C2=NN(C3CCCCCC3)C(=O)[C@H]3CC=CC[C@@H]23)cc1OC(F)F (relative stereo) | 83 |
| OCc1ccc(-c2cc3nccnc3[nH]2)cc1 | 284 to 285 |
| COc1c(C=O)cccc1Oc1ccccc1C | 53 to 55 |
| c1ccc(NCC2CCNCC2)cc1 | 60 to 61 |
| CCNc1ncccc1-c1cscc1-c1cccnc1F | 127 to 129 |
| COc1cccc2c1-c1c(ccn1CCNC(C)=O)CC2 | 132 to 133 |
| O=C(O)c1cn(C2CC2)c2c(C(F)(F)F)c(F)c(F)cc2c1=O | 159 to 162 |
| CCN(CC)CCN1CCN(CCCN2CCCCC2)C1=C(C#N)C#N | 78 to 80 |
| C[C@@H]1N=C(c2ccccc2Cl)c2cc(N)ccc2N(C)C1=O | 221 |
| OCC(Nc1nc(-c2ccc(Br)cc2)cs1)C(F)(F)F (centres undefined) | 133 to 134 |
| NC(=O)c1ccc(C2CCCCCC2)c(Cl)c1 | 152 to 155 |
| CCCCCNc1ncnc2c(C)n[nH]c12 | 158 |
| CCC(=O)N(C)c1cccc(-c2ccnc3c(C(=O)c4cccs4)cnn23)c1 | 186 to 187 |
| Cc1nnc(-c2ccc3occ(-c4ccc(F)cc4)c3c2)o1 | 130 to 131 |
| CC(C)[C@H](NC(=O)N1CCOCC1)C(=O)N[C@@H](Cc1ccccc1)C[C@H](O)[C@H](Cc1ccccc1)NC(=O)[C@@H](NC(=O)N1CCOCC1)C(C)C | 198 to 201 |
| O=S(=O)(CC(F)(F)F)Nc1cccc2c1CCCC2c1c[nH]cn1 (single isomer, unassigned; (+)) | > 260 |
| Cc1sc(-c2cccc(Br)c2)nc1O | 148 to 149 |
| O=c1[nH]c2ccc(C=C3c4ccc(F)cc4CCc4cc(F)ccc43)cc2[nH]1 | 257 |
| O=C1CCS(=O)(=O)c2sccc21 | 121 to 122 |
| CC1(C2CCCC2)Cc2cc(OCCCCC(=O)O)c(Cl)c(Cl)c2C1=O (centres undefined) | 106 to 108 |

The remaining lines, values ahead:

| melting point [°C] | SMILES |
| --- | --- |
| 127 to 129 | COc1cc(C(=O)N(C(C)C)C2CCCCC2)ccc1CN(C(=O)CCl)c1cccnc1O |
| 54 to 55 | COC(=O)C1(C(F)(F)CCCCCOc2ccc(Cl)cc2)CO1 (centres undefined) |
| 262 to 264 | COc1cc2c(O)cnnc2cc1OCc1ccccc1 |
| 129 | CCO[C@@H](Cc1ccc2oc(Cc3nc(-c4ccccc4)oc3C)cc2c1)C(=O)O |
| 140 | CCCCc1oc2ccccc2c1C=NOCCCOc1ccc(C(=O)O)cc1-c1ccc(C(F)(F)F)cc1 |
| 146 to 148 | N=C(Nc1ccc(Cl)cc1)Nc1ncccc1OCc1c(F)cccc1F |
| 228 | O=C(c1ccccc1)c1cnc2cnccc2c1O |
| 124 to 126 | CCCCNC(=O)Oc1ccc2oc3ccccc3c2c1 |
| 177 to 179 | CN(CCOc1ccc(C=C2SC(=O)NC2=O)cc1)c1ccccn1 |
| 68 to 75 | CCc1c(-c2ccc(O)cc2)c2ccc3ccc(COCCN4CCCCC4)c1n32 |
| 96 to 98 | CC(C)Oc1cc(CCCOc2c(CC(=O)O)ccc3ccccc23)n(Cc2ccc(Cl)cc2Cl)n1 |
| 131 | COc1ccc(C2NCCc3c2[nH]c2ccccc32)cc1 (centres undefined) |
| 177 to 178 | O=C1C(=O)N(Cc2ccc(F)nc2)c2ccc(S(=O)(=O)N3CC[C@H]3COc3ccccc3)cc21 |
| 271 to 273 | COC(=O)c1cc(-c2cc(-c3ccccc3O)nc(NC(=O)c3cccs3)c2C#N)ccc1OC |
| 88 to 90 | Cc1cccc(-c2n[nH]cc2-c2ccc(F)c(-c3ccc(S(=O)(=O)CCO)cc3)c2)n1 |
| 169 to 171 | Oc1cnccc1CCCOc1cccnc1Sc1cccc(Br)c1 |
| 76 to 78 | Nc1sc2c(c1C(=O)c1ccc3ccccc3c1)CCC(Cc1ccc([N+](=O)[O-])cc1)C2 (centres undefined) |
| 73 to 75 | CNC(=O)C(Cc1c[nH]c2ccccc12)NC(=O)C(CC(C)C)C(S)CC(=O)OC (centres undefined) |

| melting point [°C] | SMILES |
| --- | --- |
| 132 to 135 | Cc1cccc(-c2n[nH]cc2-c2ccc(F)c(-c3cnn(CCO)c3)c2)n1 |
| 60 to 62 | CC#CCOc1ccc(S(=O)(=O)N(C)C(C(=O)NO)c2ccc(OCCCNC(=O)OCC)cc2)cc1 (centres undefined) |
| 257 to 259 | CC(C)c1n[nH]c2c(Nc3cccc(Cl)c3)nc(Cl)nc12 |
| 280 to 285 | CCCCn1cc(C=C2SC(=S)N(CC(=O)O)C2=O)c2ccccc21 |
| 168 | COc1ccc(-n2nc(OC(C)C)cc2-c2ccc(OCCNS(C)(=O)=O)cc2)cc1 |
| 163 to 164 | CC(C)[Si](Oc1ccc2c(=O)c(N3CCC(O)(c4ccccc4)CC3)coc2c1)(C(C)C)C(C)C |
| 166 | O=C(O)CCCc1cc2nc(Cl)ccc2n1S(=O)(=O)c1ccc2c(c1)OCCO2 |
| 155 to 156 | Cc1noc(=O)c2ccc(NC(=O)C(=O)CC3(c4ccccc4)CC3)cc12 |
| 93 to 94 | CC(=O)Oc1c(C)c(C)nc2ccccc12 |
| 143 to 144 | COC(=O)c1nn(-c2ccc(OCc3ccccc3)cc2F)cc(OC)c1=O |
| 134 to 136 | CCOCCOc1ccccc1COc1ccc2c(c1)C=C(C(=O)O)CCS2(=O)=O |
| 206 | CCc1ccnc(C(=O)c2[nH]c3ccc(CC)cc3c2CC(=O)O)c1 |
| 150 to 152 | COc1ccc(OC)c(CC(=O)c2ccc(C(C)C)c(OS(N)(=O)=O)c2C(C)C)c1 |
| 120 to 130 | COc1ccc(CN(C)CCCSc2ccc(NC(=O)c3cccc4c(=O)c5cccc(F)c5[nH]c34)cc2)cc1OC |
| 176 to 177 | O=c1[nH]c(N2CCN(Cc3ccccc3)C(CO)C2)cc2ccccc12 (centres undefined) |
| 141 to 143 | CC(C)(C)OC(=O)n1cc(C(=O)C2CSC(c3cccnc3)N2C(N)=O)c2ccccc21 (centres undefined) |
| 206 to 208 | CS(=O)(=O)NCCCCn1c(CCO)nc2c(N)nc3ccccc3c21 |
